Experimental data from publication PMC4491869, “Antimicrobial activity of synthetic cationic peptides and lipopeptides derived from human lactoferricin against Pseudomonas aeruginosa planktonic cultures and biofilms” (BMC Microbiology, 2015).
Converted amounts (≈) assume the structure as drawn. Where two headings read alike, the source gives them in different places. Where a SMILES comes first, the peptide text is derived from it. The star is where a group is joined. Butanoyl(2,2-Me2) = CCC(C)(C)C(=O)*; Octanoyl(6-Me) = CCC(C)CCCCC(=O)*; Octanoyl = CCCCCCCC(=O)*

Legend:
[1] = tested on: P. aeruginosa PAO1; assay: Time-kill curves (T3log); assay type: cell-based, Pseudomonas aeruginosa; conditions: MH, 37 °C with shaking, sampling 15 min to 6 h
Method: Time-kill studies were determined with glass tubes containing 10 ml of MH and different concentrations of the peptides (1, 2 and 4 times their MIC). Overnight cultures of P. aeruginosa PAO1 in TSB were adjusted at 5 × 10^7 CFU/ml turbidimetrically. This […] suspension was diluted in the MH tubes (1:50) for the time-kill assay. Tubes were incubated at 37 °C with shaking and samples were taken at the following time points after the beginning of incubation: 15 min, 30 min, 45 min, 1 h, 2 h, 4 h and 6 h. Each sample was serially diluted and plated. The lower limit of detection was 30 CFU/ml (1.5 × log10 CFU/ml).
To quantify the killing efficiency of the treatments, the parameter T3log (defined as the time required for the treatment to decrease 3 logs the initial inoculum) was used.

[2] = tested on: Pseudomonas aeruginosa PAO1 planktonic cells; assay type: cell-based
Method: Minimal inhibitory concentrations (MIC) of the peptides were determined in Mueller Hinton (MH) medium (Difco Laboratories, Detroit, MI, USA) by the broth microdilution assay following recommendations of the Clinical and Laboratory Standards Institute (CLSI, formerly NCCLS) with some modifications. Minimum bactericidal concentration (MBC) was defined as the concentration that caused a 3-log viability decrease in the initial inoculum and was calculated by colony counts on TSA plates incubated for 24 h at 37 °C.

[3] = tested on: P. aeruginosa PAO1 biofilms; assay: Microplate biofilm assay (static flow regime), crystal violet removal activity; assay type: cell-based, Pseudomonas aeruginosa; conditions: 10XMIC, 24 h at 37 °C, biofilms grown in microplates (static conditions)
Method: In the microplate based assay, biofilms were grown with no fluid shear and the anti-biofilm activity of peptides was assessed as previously described with some modifications. Briefly, overnight cultures of P. aeruginosa PAO1 in TSB were adjusted at 5 × 10^7 CFU/ml turbidimetrically. This suspension was diluted in TSB (1:100) and 100 μl aliquots were added to the wells of a 96-well plate. After 24 h incubation at 37 °C, planktonic bacteria were removed by gently inverting the plate and then the biofilm-containing wells were washed with saline (0.85 % NaCl). The antimicrobial compound was serially diluted in Mueller Hinton (MH) at final concentrations higher than its planktonic MIC and 200 μl of each dilution was added to the wells. […]
The ability of the antimicrobials to remove the biofilm attached to the microplate well was determined by CV staining. […] The absorbance was measured at 595 nm.
(§1) Both the disinfection and removal activity of antimicrobials were expressed as “activity percentage”, a parameter that was calculated using the following formula: ActivityPercentage=C−B−T−B/C−B×100
(§2) Where C is the absorbance value of the control well with non-treated biofilm, T corresponds to the absorbance value of the well with treated biofilm and B is the blank well (i.e. with no biofilm).

[4] = tested on: P. aeruginosa PAO1 biofilms; assay type: cell-based, Pseudomonas aeruginosa
Method: In the microplate based assay, biofilms were grown with no fluid shear and the anti-biofilm activity of peptides was assessed as previously described with some modifications. Briefly, overnight cultures of P. aeruginosa PAO1 in TSB were adjusted at 5 × 10^7 CFU/ml turbidimetrically. This suspension was diluted in TSB (1:100) and 100 μl aliquots were added to the wells of a 96-well plate. After 24 h incubation at 37 °C, planktonic bacteria were removed by gently inverting the plate and then the biofilm-containing wells were washed with saline (0.85 % NaCl). The antimicrobial compound was serially diluted in Mueller Hinton (MH) at final concentrations higher than its planktonic MIC and 200 μl of each dilution was added to the wells. After 24 h incubation at 37 °C, biofilms were stained with either MTT (Sigma, St. Louis, MO, USA) or crystal violet (CV). As control, duplicate biofilms were incubated with MH containing no antimicrobial.
To quantify the disinfection (or bactericidal) activity of the antimicrobials on the biofilms, the MTT assay was used and performed as follows. After the treatment, the biofilms were rinsed with saline and 200 μl of a 0.5 mg/ml dilution of MTT in MH, was added to the wells. Incubation of biofilm with MTT was carried out during 4 h at 37 °C with no shaking. As a measure of cell viability, the conversion of MTT to a […] was determined by solubilizing the salt in 100 μl/well of DMSO and reading the absorbance of the resulting solution at 540 nm.
as §1, §2

[5] = tested on: HeLa cells; assay: Cytotoxicity assay (MTT); assay type: cell-based; conditions: HeLa cells, 24 h, MTT; maximum concentration assayed 10 times their MIC
Method: Cytotoxicity was assayed on HeLa cells using the MTT [3-(4,5-dimethylthiazoyl-2-yl) 2,5 diphenyltetrazolium bromide protocol. Cells were grown in Dulbeccos’s modified Eagle’s medium (DMEM) and adjusted to a concentration of 10^5 cells/ml (MTT) in 96 wells polystyrene plates. Plates were incubated for 24 h at 37 °C in 5 % CO2, then supplemented with increasing amounts of peptides diluted in 2 mM Hepes pH 7.2, and incubation carried on for 24 h under the same conditions. After this time, filter-sterilized MTT was added in different plates. After 3 h, the content of the wells was gently solved and mixed with 100 μl of DMSO (MTT). Absorbance was measured at 540 nm. Compound cytotoxicity was expressed as LC50, the concentration of the compound that is lethal to 50 % of the cells.

Structure (SMILES) | MIC (minimal inhibitory concentration) ([2]; PAO1, 24 h) [µg/mL] | T3log at 1X MIC (time needed to decrease 3 logs the initial inoculum) [1] [minutes] | T3log at 2X MIC (time needed to decrease 3 logs the initial inoculum) [1] [minutes] | T3log at 4X MIC (time needed to decrease 3 logs the initial inoculum) [1] [minutes] | MBC (minimal bactericidal concentration) ([2]; PAO1, 24 h) [µg/mL] | Removal activity (biofilm mass removed, CV test) [3] | Disinfection activity (biofilm-forming bacteria killed, MTT test) ([4]; 10XMIC, 24 h at 37 °C, biofilms grown in microplates (static conditions)) | LC50 relative to the maximum concentration assayed [5] [times their MIC] | MIC (minimal inhibitory concentration) ([2]; PAO1 planktonic cells, broth microdilution in Mueller Hinton medium, CLSI with some modifications) [µg/mL] | MBC (minimal bactericidal concentration) ([2]; PAO1 planktonic cells, concentration causing a 3-log viability decrease in the initial inoculum, colony counts on TSA, 24 h, 37 °C) [µg/mL] | Disinfection activity (biofilm-forming bacteria killed, MTT test) ([4]; PAO1, 24 h) [%]
CCC(C)CCCCC(=O)N[C@@H](Cc1ccccc1)C(=O)N[C@@H](Cc1c[nH]c2ccccc12)C(=O)N[C@@H](CCCNC(=N)N)C(=O)N[C@H](C(=O)N[C@@H](CCCNC(=N)N)C(=O)N[C@H](C(=O)N[C@@H](CCCNC(=N)N)C(=O)N[C@@H](CCCNC(=N)N)C(N)=O)[C@@H](C)CC)[C@@H](C)CC (stereo partly shown) [6-MO-LF11-215] ({Octanoyl(6-Me)}-FWRIRIRR-NH2) | 64 (≈ 47.7 µM) | 34 | 11 | 10 | 64 (≈ 47.7 µM) |  |  |  |  |  | 
CCC(C)CCCCC(=O)N1CCC[C@H]1C(=O)N[C@@H](Cc1ccccc1)C(=O)N[C@@H](Cc1c[nH]c2ccccc12)C(=O)N[C@@H](CCCNC(=N)N)C(=O)N[C@H](C(=O)N[C@@H](CCCNC(=N)N)C(=O)N[C@H](C(=O)N[C@@H](CCCNC(=N)N)C(=O)N[C@@H](CCCNC(=N)N)C(N)=O)[C@@H](C)CC)[C@@H](C)CC (stereo partly shown) [6-MO-LF11-322] ({Octanoyl(6-Me)}-PFWRIRIRR-NH2) | 64 (≈ 44.5 µM) | 41 | 39 | 19 | 64 (≈ 44.5 µM) |  |  |  |  |  | 
CC[C@H](C)[C@H](NC(=O)[C@H](CCCNC(=N)N)NC(=O)[C@@H](NC(=O)[C@H](CCCNC(=N)N)NC(=O)[C@H](Cc1c[nH]c2ccccc12)NC(=O)[C@@H](N)Cc1ccccc1)[C@@H](C)CC)C(=O)N[C@@H](CCCNC(=N)N)C(=O)N[C@@H](CCCNC(=N)N)C(N)=O [LF11-215] (H-FWRIRIRR-NH2) |  |  |  |  |  |  |  | > 10 | 64 (≈ 53.3 µM) | 128 (≈ 107 µM) | 
N=C(N)NCCC[C@H](NC(=O)[C@H](CCCNC(=N)N)NC(=O)[C@H](Cc1c[nH]c2ccccc12)NC(=O)[C@H](Cc1ccccc1)NC(=O)[C@H](CCCNC(=N)N)NC(=O)[C@H](CCCNC(=N)N)NC(=O)[C@H](Cc1c[nH]c2ccccc12)NC(=O)[C@@H](N)Cc1ccccc1)C(N)=O [LF11-227] (H-FWRRFWRR-NH2) | 64 (≈ 48.9 µM) |  |  |  | 64 (≈ 48.9 µM) |  |  |  |  |  | ~100
CCCCCCCC(=O)N[C@@H](Cc1ccccc1)C(=O)N[C@@H](Cc1c[nH]c2ccccc12)C(=O)N[C@@H](CCCNC(=N)N)C(=O)N[C@H](C(=O)N[C@@H](CCCNC(=N)N)C(=O)N[C@H](C(=O)N[C@@H](CCCNC(=N)N)C(=O)N[C@@H](CCCNC(=N)N)C(N)=O)[C@@H](C)CC)[C@@H](C)CC [O-LF11-215] (Octanoyl-FWRIRIRR-NH2) | 32 (≈ 24.1 µM) | 17 | 21 | 10 | 32 (≈ 24.1 µM) |  |  |  |  |  | 
CCCCCCCC(=O)N[C@@H](Cc1ccccc1)C(=O)N[C@@H](Cc1c[nH]c2ccccc12)C(=O)N[C@@H](CCCNC(=N)N)C(=O)N[C@@H](CCCNC(=N)N)C(=O)N[C@@H](Cc1ccccc1)C(=O)N[C@@H](Cc1c[nH]c2ccccc12)C(=O)N[C@@H](CCCNC(=N)N)C(=O)N[C@@H](CCCNC(=N)N)C(N)=O [O-LF11-227] (Octanoyl-FWRRFWRR-NH2) | 128 (≈ 89.2 µM) | 10 | 10 | 10 | 128 (≈ 89.2 µM) |  |  |  |  |  | 

Now from value to molecule, other results behind:

MIC (minimal inhibitory concentration) ([2]; PAO1, 24 h) [µg/mL] | Structure (SMILES) | T3log at 1X MIC (time needed to decrease 3 logs the initial inoculum) [1] [minutes] | T3log at 2X MIC (time needed to decrease 3 logs the initial inoculum) [1] [minutes] | T3log at 4X MIC (time needed to decrease 3 logs the initial inoculum) [1] [minutes] | MBC (minimal bactericidal concentration) ([2]; PAO1, 24 h) [µg/mL] | Removal activity (biofilm mass removed, CV test) [3] | Disinfection activity (biofilm-forming bacteria killed, MTT test) ([4]; 10XMIC, 24 h at 37 °C, biofilms grown in microplates (static conditions)) | LC50 relative to the maximum concentration assayed [5] [times their MIC] | MIC (minimal inhibitory concentration) ([2]; PAO1 planktonic cells, broth microdilution in Mueller Hinton medium, CLSI with some modifications) [µg/mL] | MBC (minimal bactericidal concentration) ([2]; PAO1 planktonic cells, concentration causing a 3-log viability decrease in the initial inoculum, colony counts on TSA, 24 h, 37 °C) [µg/mL] | Disinfection activity (biofilm-forming bacteria killed, MTT test) ([4]; PAO1, 24 h) [%]
16 (≈ 12.3 µM) | CC[C@H](C)[C@H](NC(=O)[C@H](CCCNC(=N)N)NC(=O)[C@@H](NC(=O)[C@H](CCCNC(=N)N)NC(=O)[C@H](Cc1c[nH]c2ccccc12)NC(=O)[C@H](Cc1ccccc1)NC(=O)C(C)(C)CC)[C@@H](C)CC)C(=O)N[C@@H](CCCNC(=N)N)C(=O)N[C@@H](CCCNC(=N)N)C(N)=O [DI-MB-LF11-215] ({Butanoyl(2,2-Me2)}-FWRIRIRR-NH2) | 17 | 11 | 10 | 16 (≈ 12.3 µM) | higher than 35% | medium-range disinfection activity |  |  |  | 
32 (≈ 24.6 µM) | CC[C@H](C)[C@H](NC(=O)[C@H](CCCNC(=N)N)NC(=O)[C@@H](NC(=O)[C@H](CCCNC(=N)N)NC(=O)[C@H](Cc1c[nH]c2ccccc12)NC(=O)[C@H](Cc1ccccc1)NC(=O)[C@@H]1CCCN1)[C@@H](C)CC)C(=O)N[C@@H](CCCNC(=N)N)C(=O)N[C@@H](CCCNC(=N)N)C(N)=O [LF11-322] (H-PFWRIRIRR-NH2) |  |  |  | 64 (≈ 49.3 µM) |  |  |  |  |  | 
8 (≈ 5.53 µM) | CC[C@H](C)[C@H](NC(=O)[C@H](CCCNC(=N)N)NC(=O)[C@@H](NC(=O)[C@H](CCCNC(=N)N)NC(=O)[C@H](Cc1c[nH]c2ccccc12)NC(=O)[C@H](Cc1ccccc1)NC(=O)[C@H](Cc1ccccc1)NC(=O)[C@@H]1CCCN1)[C@@H](C)CC)C(=O)N[C@@H](CCCNC(=N)N)C(=O)N[C@@H](CCCNC(=N)N)C(N)=O [LF11-324] (H-PFFWRIRIRR-NH2) |  |  |  | 8 (≈ 5.53 µM) |  |  |  |  |  | 
